Patent US11453669B2, “Polycyclic pyridone derivative” (Shionogi & Co., Ltd., priority 2018, dated 2022)
Like-named read-outs stand apart in the source and are kept apart here.

Key:
[1] = biological target: T1, Voltage gated sodium channel (Nav1.5 channel) encoded by SCN5A gene (Homo sapiens, UniProt Q14524); experiment: Nav test (QPatch whole cell patch clamp); format: cell-based; conditions: HEK cells expressing Nav1.5, applied 5 minutes or more, room temperature
T1 construct: expressed in transfected cells; host or cells: HEK cells
T1 sequence (Q14524 whole entry): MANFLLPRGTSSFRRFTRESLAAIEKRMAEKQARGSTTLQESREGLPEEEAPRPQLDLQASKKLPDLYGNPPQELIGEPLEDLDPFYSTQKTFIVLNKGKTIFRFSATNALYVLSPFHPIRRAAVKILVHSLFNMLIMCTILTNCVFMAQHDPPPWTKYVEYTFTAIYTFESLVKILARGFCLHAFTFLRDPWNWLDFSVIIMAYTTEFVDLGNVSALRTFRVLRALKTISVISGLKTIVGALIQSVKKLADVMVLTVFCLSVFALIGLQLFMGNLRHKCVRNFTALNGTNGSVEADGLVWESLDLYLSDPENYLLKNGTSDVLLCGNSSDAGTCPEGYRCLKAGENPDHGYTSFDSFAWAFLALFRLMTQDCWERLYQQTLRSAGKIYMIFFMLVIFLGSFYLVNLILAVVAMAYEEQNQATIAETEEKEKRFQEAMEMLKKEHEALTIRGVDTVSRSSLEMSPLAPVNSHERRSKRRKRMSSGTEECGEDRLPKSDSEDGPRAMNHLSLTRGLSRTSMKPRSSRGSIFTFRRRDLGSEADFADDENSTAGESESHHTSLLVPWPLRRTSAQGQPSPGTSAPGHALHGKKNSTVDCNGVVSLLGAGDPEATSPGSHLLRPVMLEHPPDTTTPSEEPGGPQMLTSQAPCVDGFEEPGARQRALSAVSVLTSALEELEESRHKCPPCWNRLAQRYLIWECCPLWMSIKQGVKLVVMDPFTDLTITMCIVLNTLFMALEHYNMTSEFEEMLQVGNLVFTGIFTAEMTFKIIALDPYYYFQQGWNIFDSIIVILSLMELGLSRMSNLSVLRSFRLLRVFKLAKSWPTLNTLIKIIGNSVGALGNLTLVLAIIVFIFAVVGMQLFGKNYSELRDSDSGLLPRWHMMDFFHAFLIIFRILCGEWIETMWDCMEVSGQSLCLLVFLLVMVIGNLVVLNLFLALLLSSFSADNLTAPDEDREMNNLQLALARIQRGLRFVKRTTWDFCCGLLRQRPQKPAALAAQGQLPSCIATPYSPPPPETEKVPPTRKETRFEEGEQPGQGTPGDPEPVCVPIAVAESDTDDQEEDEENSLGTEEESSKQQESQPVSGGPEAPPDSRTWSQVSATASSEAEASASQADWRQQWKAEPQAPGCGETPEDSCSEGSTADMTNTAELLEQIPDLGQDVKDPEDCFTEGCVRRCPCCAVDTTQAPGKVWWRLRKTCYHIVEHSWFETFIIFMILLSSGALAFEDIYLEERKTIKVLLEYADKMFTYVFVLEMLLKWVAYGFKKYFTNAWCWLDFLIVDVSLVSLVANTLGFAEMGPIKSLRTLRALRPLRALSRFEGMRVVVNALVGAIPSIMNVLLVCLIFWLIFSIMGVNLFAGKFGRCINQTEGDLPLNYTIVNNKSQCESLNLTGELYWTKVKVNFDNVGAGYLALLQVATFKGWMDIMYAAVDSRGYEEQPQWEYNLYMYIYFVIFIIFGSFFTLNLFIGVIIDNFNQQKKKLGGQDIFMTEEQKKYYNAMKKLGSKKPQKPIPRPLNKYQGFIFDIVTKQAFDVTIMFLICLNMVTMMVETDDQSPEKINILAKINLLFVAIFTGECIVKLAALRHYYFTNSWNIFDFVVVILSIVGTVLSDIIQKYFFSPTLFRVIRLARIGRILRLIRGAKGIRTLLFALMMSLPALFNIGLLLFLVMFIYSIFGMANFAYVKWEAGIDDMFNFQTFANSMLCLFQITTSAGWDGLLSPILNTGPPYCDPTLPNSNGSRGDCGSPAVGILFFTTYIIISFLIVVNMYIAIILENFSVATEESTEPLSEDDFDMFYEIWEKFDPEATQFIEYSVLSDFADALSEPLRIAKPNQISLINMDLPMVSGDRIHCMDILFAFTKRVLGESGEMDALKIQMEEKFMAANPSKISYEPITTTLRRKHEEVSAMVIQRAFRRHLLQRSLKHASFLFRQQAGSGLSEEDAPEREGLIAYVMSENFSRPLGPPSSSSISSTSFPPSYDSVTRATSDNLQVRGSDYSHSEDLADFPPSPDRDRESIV
Description: A cell was retained at a membrane potential of −100 mV by whole cell patch clamp method using a fully automated patch clamp system (QPatch; Sophion Bioscience A/S), and INa induced by depolarization pulse stimulation at −10 mV for 20 ms was recorded. […] The extracellular solution in which the medium and the compound of the present invention had been dissolved at each objective concentration was applied to the cell for 5 minutes or more under conditions of room temperature.

[2] = test system: HIV mutant strain 2 (E92Q/E138T/G140S/Q148H); format: cell-based; conditions: FC=EC50 of the mutant strain/EC50 of the wild strain, HeLa-CD4 cells
Description: (§1) Serial dilutions of a test sample were prepared in a 96-well microplate (50 μL/well). 2.5×10^5 cells/mL of a HeLa-CD4 cell suspension was dispensed at 100 μL/well to the plate containing the test sample. Then, an HIV virus solution (wild strain and mutant strain) was dispensed at 50 μL/well. The plate was mixed with a plate mixer and cultured for 3 days in a CO2 incubator. The culture supernatant in each well was removed by suction. A cell lysis buffer in a reporter assay kit was dispensed at 100 μL/well, and the plate was frozen in a freezer (−80° C.). The plate frozen in a freezer was thawed at room temperature, then mixed with a plate mixer, and centrifuged at 1,200 rpm for 5 minutes. The supernatant of each well was dispensed at 20 μL/well to a 96-well microplate (BLACK). A chemiluminescent in the reporter assay kit reagent was dispensed at 100 μL/well and reacted at room temperature for approximately 1 hour. Then, luminescence intensity was measured using MicroBeta TRILUX.

[3] = test system: HIV mutant strain 1 (E138K/G140S/Q148H/N155H); format: cell-based; conditions: FC=EC50 of the mutant strain/EC50 of the wild strain, HeLa-CD4 cells
Description: as §1

HIV [4] = experiment: Anti-HIV activity (MT-4 cells, MTT); format: cell-based; conditions: read-out: EC50_nM (50% HIV inhibitory concentration)
Description: Serial dilutions of a test sample were prepared in a 96-well microplate (50 μL/well). 2.5×10^5 cells/mL of an MT-4 cell suspension was dispensed at 100 μL/well to the plate containing the test sample. Then, an HIV virus solution was dispensed at 50 μL/well. The plate was mixed with a plate mixer and cultured for 4 days in a CO2 incubator. An MTT (3-(4,5-dimethylthiazol-2-yl)-2,5-diphenyltetrazolium bromide) solution was dispensed at 30 μL/well. The plate was reacted for 1 hour in a CO2 incubator. 150 μL of the supernatant was removed from each well so as not to take up the cells. 150 μL of a cell lysis solution was added to each well and well mixed with a plate mixer until the cells were completely lysed. The absorbance of the mixed plate was measured at two wavelengths of 560 nm and 690 nm using a microplate reader.

[5] = test system: HIV mutant strain 3 (E92Q/E138K/G140S/Q148H); experiment: Resistance evaluation test, HeLa-CD4 reporter assay, mutant strain 3; format: cell-based; conditions: FC=EC50 of the mutant strain/EC50 of the wild strain, HeLa-CD4 cells
Description: as §1, with “TRILUX. […] FC=EC50 of the mutant strain/EC50 of the wild strain (Results) The FC for mutant strain 1 (E138K/G140S/Q148H/N155H) and the FC for mutant strain 2 (E92Q/E138T/G140S/Q148H) are shown in the table.” for “TRILUX.”

[6] = test system: HIV mutant strain 4 (T97A/E138T/G140S/Q148H); experiment: Resistance evaluation test, HeLa-CD4 reporter assay, mutant strain 4; format: cell-based; conditions: FC=EC50 of the mutant strain/EC50 of the wild strain, HeLa-CD4 cells
Description: as §1, with “TRILUX. […] FC=EC50 of the mutant strain/EC50 of the wild strain (Results) The FC for mutant strain 1 (E138K/G140S/Q148H/N155H) and the FC for mutant strain 2 (E92Q/E138T/G140S/Q148H) are shown in the table.” for “TRILUX.”

HIV [7] = experiment: Anti-HIV activity evaluation test using PBMC of a healthy subject; format: cell-based; conditions: Human immunodeficiency virus 1, 96 h, read-out: 90% HIV inhibitory concentration (EC90); PHA-stimulated PBMC, cultured 4 days, reverse transcriptase activity
Description: Serial dilutions of a test sample were prepared in a 96-well microplate (50 μL/well). PBMC stimulated with 1.0×10^5 cells/well of Phytohemagglutinin (PHA) and an HIV virus solution were mixed for the required number of wells, and the mixture was reacted at 37° C. for 1 hour. After the reaction, the cell suspension was centrifuged and the supernatant discarded. The infected cells were dispersed in a culture solution for the required number of wells at 150 μL/well, and 150 μL/well was dispensed to a 96-well microplate containing a test sample. The plate was mixed with a plate mixer and cultured for 4 days in a C02 incubator. The reverse transcriptase activity in the culture solution was measured.

[8] = format: in vitro ADME; conditions: human, 30 min, 0.5 μmol/L, pH 7.4
Description: Using commercially available pooled human liver microsomes, a compound of the present invention was reacted for a constant time, and a remaining rate was calculated by comparing a reacted sample and an unreacted sample, thereby, a degree at which the compound of the present invention was metabolized in liver was assessed.
A reaction was performed (oxidative reaction) at 37° C. for 0 minute or 30 minutes in the presence of 1 mmol/L NADPH in 0.2 mL of a buffer solution (50 mmol/L Tris-HCl pH 7.4, 150 mmol/L potassium chloride, 10 mmol/L magnesium chloride) containing 0.5 mg protein/mL of human liver microsomes. After the reaction, 50 μL of the reaction solution was added to 100 μL of a solution of methanol/acetonitrile=1/1 (v/v), and the mixture was mixed and centrifuged at 3000 rpm for 15 minutes. The compound of the present invention in the centrifugation supernatant was quantified by LC/MS/MS or solid-phase extraction (SPE)/MS. The amount of the compound of the present invention remaining after the reaction was calculated with the amount of the compound at 0 minutes of the reaction defined as 100%.

HIV [9] = experiment: Anti-HIV activity evaluation test in the presence of human serum protein (MT-4 cells); format: cell-based; conditions: PS=4×(EC50 with 25% human serum protein/EC50 without), 100% extrapolated value
Description: Serial dilutions of a test sample were prepared in a 96-well microplate (50 μL/well). A human serum protein solution (human serum protein concentration: 50%) was dispensed into a 96-well microplate containing a test sample in an amount of 100 μL/well, and left standing at room temperature for 1 hour. 100 μL/well of the culture solution was dispensed to a plate without serum. 3.0×10^5 cells/well of MT-4 cells and 3 μL/well of HIV virus solution were mixed for the required number of wells and the mixture was reacted at 37° C. for 1 hour. After the reaction, the cell suspension was centrifuged and the supernatant discarded. The infected cells were dispersed in a culture solution for the required number of wells at 50 μL/well, and 50 μL/well was dispensed to a 96-well microplate containing the test sample and human serum protein (human serum protein final concentration: 25%). The plate was mixed with a plate mixer and cultured for 4 days in a CO2 incubator. An MTT (3-(4,5-dimethylthiazol-2-yl)-2,5-diphenyltetrazolium bromide) solution was dispensed at 30 μL/well. The plate was reacted for 1 hour in a CO2 incubator. 150 μL of the supernatant was removed from each well so as not to take up the cells. […] The absorbance of the mixed plate was measured at two wavelengths of 560 nm and 690 nm using a microplate reader. […]

CYP3A4 = biological target: T2, CYP3A4 (Homo sapiens, UniProt P08684); experiment: CYP3A4 (MDZ) MBI test; format: in vitro ADME; conditions: pooled human liver microsomes, midazolam 1-hydroxylation, IC 0 min preincubation/IC 30-min preincubation
T2 construct: from tissue; host or cells: pooled human liver microsomes
T2 sequence (P08684 whole entry): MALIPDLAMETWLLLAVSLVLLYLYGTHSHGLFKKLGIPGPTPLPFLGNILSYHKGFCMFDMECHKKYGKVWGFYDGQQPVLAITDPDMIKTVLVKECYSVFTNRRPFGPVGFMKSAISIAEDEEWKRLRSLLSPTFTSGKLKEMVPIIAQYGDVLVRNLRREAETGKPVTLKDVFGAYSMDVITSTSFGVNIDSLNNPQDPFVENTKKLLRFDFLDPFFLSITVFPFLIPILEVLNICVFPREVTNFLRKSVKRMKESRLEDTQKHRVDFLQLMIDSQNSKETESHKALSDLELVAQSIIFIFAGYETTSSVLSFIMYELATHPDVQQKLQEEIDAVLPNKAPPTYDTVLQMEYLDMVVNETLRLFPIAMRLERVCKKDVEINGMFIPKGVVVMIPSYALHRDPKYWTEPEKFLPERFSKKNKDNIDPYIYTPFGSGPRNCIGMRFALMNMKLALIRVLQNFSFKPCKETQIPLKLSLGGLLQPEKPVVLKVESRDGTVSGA
Description: This test as to the inhibition of CYP3A4 by the compound of the present invention is to evaluate mechanism based inhibition (MBI) ability from enhancement in inhibitory effect, caused by a metabolism reaction, of the compound of the present invention. CYP3A4 inhibition was evaluated using pooled human liver microsomes by 1-hydroxylation reaction of midazolam (MDZ) as a marker reaction. […]
A part of pre-reaction solution was transferred to another 96-well plate, and 1/10 diluted by K-Pi buffer solution containing a substrate. […] After each plate where the marker reaction has been performed was centrifuged at 3000 rpm for 15 minutes, 1-hydroxymidazolam in the centrifugation supernatant was quantified by LC/MS/MS.
Only a solvent DMSO used for dissolving the compound was added to the reaction solution instead of the compound of the present invention, and the mixture was used as a control (100%). Remaining activity (%) was calculated at the time of the addition of the compound of the present invention at each concentration, and IC value was calculated by inverse estimation based on a logistic model using the concentrations and the rates of inhibition. A shifted IC value is calculated from IC from the 0 min preincubation/IC from the 30-min preincubation. […]

[10] = Human immunodeficiency virus 1, MT4, 96 h

For `CCN1C(=O)c2c(O)c(=O)c(-c3nnc(Cc4ccc(F)cc4F)s3)cn2N2CCCC[C@@H]12` [Compound I-002], the “ratio of maximum peak current (INa) with compound relative to medium” value (“ratio … with compound relative to medium” below) [1] was 102%, the “FC (fold change) for mutant strain 2” value [2] was 7.5 and the “FC (fold change) for mutant strain 1” value [3] was 5.6. For the same compound, the EC50 (HIV [4]; MT-4 cells, cultured 4 days, MTT) was 3.2 nM, the “FC for mutant strain 3” value [5] was 7.7 and the “FC for mutant strain 4” value [6] was 3.2.

With `CCN1C(=O)c2c(O)c(=O)c(-c3nnc(Cc4c(F)cc(F)cc4F)s3)cn2N2CCCC[C@@H]12` [Compound I-008] the “ratio … with compound relative to medium” value [1] was 103%, the “FC (fold change) for mutant strain 2” value [2] was 6.9 and the “FC (fold change) for mutant strain 1” value [3] was 3.8. The EC50 (HIV [4]; [10]) was 1.6 nM, the EC90 (HIV [7]) was 1 nM and the residual rate [8] was 97.7. The “potency shift (PS) in the presence of human serum protein” value (HIV [9]) was 116.

In the case of `CCN1C(=O)c2c(O)c(=O)c(-c3nnc(Cc4ccc(F)cc4F)s3)cn2N2C[C@@H](C)C[C@@H]12` [II-023], the “ratio … with compound relative to medium” value [1] is reported as 93.3%, the “FC (fold change) for mutant strain 2” value [2] is reported as 2.5 and the “FC (fold change) for mutant strain 1” value [3] is reported as 4.1. The EC50 (HIV [4]; [10]) was 1.2 nM, the EC90 (HIV [7]) was 1.7 nM and the residual rate [8] was 98.3. The “potency shift (PS) in the presence of human serum protein” value (HIV [9]) was 56.

With `CCN1C(=O)c2c(O)c(=O)c(-c3nnc(Cc4c(F)cc(F)cc4F)s3)cn2N2[C@H](COC)CC[C@@H]12` [II-037] the “ratio … with compound relative to medium” value [1] was 88.8%, the “FC (fold change) for mutant strain 2” value [2] was 11 and the “FC (fold change) for mutant strain 1” value [3] was 10. For the same compound, the EC50 (HIV [4]; [10]) was 0.62 nM, the “CYP3A4 MBI grade (shifted IC)” value (CYP3A4) was “(−) (shifted IC of 1.0 or less is graded as negative (−))” and the residual rate [8] was 93.4.

With `CCN1C(=O)c2c(O)c(=O)c(-c3nnc(Cc4ccc(F)cc4F)s3)cn2N2C[C@@H]3CC[C@@H](C3)[C@@H]12` [II-051] the “FC (fold change) for mutant strain 2” value [2] was 3.9, the “FC (fold change) for mutant strain 1” value [3] was 2.5 and the EC50 (HIV [4]; [10]) was 0.66 nM. For the same compound, the “CYP3A4 MBI grade (shifted IC)” value (CYP3A4) was “(−) (shifted IC of 1.0 or less is graded as negative (−))” and the residual rate [8] was 92.9.
